Data published in paper PMC6032158, “Structure–Activity Relationship of Piplartine and Synthetic Analogues against Schistosoma mansoni and Cytotoxicity to Mammalian Cells” (International Journal of Molecular Sciences, 2018).
“Also recorded” adds a separate entry of the source.

Columns and labels:
[1] = tested on: murine fibroblast (NIH-3T3) cells; assay: MTT cytotoxicity assay in murine fibroblasts; type: cell-based
Summary of the method: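 NIH-3T3 cells exposed 24 h to samples at 25–800 µg/mL in 3% DMSO, with 3% DMSO as control. MTT (5 mg/mL stock) added for 2 h, formazan dissolved in DMSO, absorbance read at 595 nm.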

J774A.1 cells = assay: Cell death mechanism, annexin-V FITC / propidium iodide staining by flow cytometry; type: cell-based, mouse; details: J774A.1, 24 h; piplartine 25 μg/mL, 14B 400 μg/mL
Procedure: Cells were then treated with 2 µL of annexin-V FITC (Apoptosis Detection Kit; BD Biosciences, Franklin Lakes, NJ, USA) and 2 µL of propidium iodide (PI, 50 µg/mL) for 15 min in the dark at room temperature. Next, 100 µL binding buffer was added and samples were analysed by flow cytometry (BD LSFortessa^TM, Franklin Lakes, NJ, USA). A total of 20,000 events were collected per sample.

[2] = tested on: 49-day-old S. mansoni adult worms; assay: In vitro experiments with adult worms of S. mansoni (mortality, motor activity); type: cell-based, Schistosoma mansoni; details: for Dead Worms (%) F / Motor Activity Reduction (%) Significant F / Motor Activity Reduction (%) Slight F: female worms; for Dead Worms (%) M / Motor Activity Reduction (%) Significant M / Motor Activity Reduction (%) Slight M: male worms
Summary of the method: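 BH-strain worm pairs recovered from hamsters 49 days post-infection, washed in RPMI 1640 with penicillin, streptomycin and amphotericin B, and cultured as mated pairs with or without drug for 96 h. Motor activity changes and death were scored by microscopy.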

O=C(/C=C/c1ccc2c(c1)OCO2)N1CCCC1 [Compound 14B]
effect on NIH-3T3 cell viability (in words) ([1]; MTT, 24 h exposure, 25 to 800 µg/mL): considerable reduction in cell viability at concentrations of 400 and 800 μg/mL; also recorded: showed toxicity at 200, 400 and 800 μg/mL
Emax at 800 µg/mL ([1]; Mus musculus, NIH3T3, 24 h, decrease in cell viability at the maximum concentration tested (800 μg/mL), NIH-3T3, 24 h): 83.64 ± 0.47%
annexin-V FITC staining (apoptosis marker) vs DMEM negative control (in words) (J774A.1 cells): significant (p < 0.05) increase in annexin-V FITC staining
Dead Worms (%) F ([2]; 5 µM, 24 h): 0%
Motor Activity Reduction (%) Significant F ([2]; 5 µM, 24 h): 0%
Motor Activity Reduction (%) Slight F ([2]; 5 µM, 24 h): 0%
Dead Worms (%) M ([2]; 5 µM, 24 h): 0%
Motor Activity Reduction (%) Significant M ([2]; 5 µM, 24 h): 0%
Motor Activity Reduction (%) Slight M ([2]; 5 µM, 24 h): 0%
Dead Worms (%) F ([2]; 5 µM, 48 h): 0%
Motor Activity Reduction (%) Significant F ([2]; 5 µM, 48 h): 0%
Motor Activity Reduction (%) Slight F ([2]; 5 µM, 48 h): 0%
Dead Worms (%) M ([2]; 5 µM, 48 h): 0%
Motor Activity Reduction (%) Significant M ([2]; 5 µM, 48 h): 0%
Motor Activity Reduction (%) Slight M ([2]; 5 µM, 48 h): 0%
Dead Worms (%) F ([2]; 5 µM, 72 h): 0%
Motor Activity Reduction (%) Significant F ([2]; 5 µM, 72 h): 0%
Motor Activity Reduction (%) Slight F ([2]; 5 µM, 72 h): 0%
Dead Worms (%) M ([2]; 5 µM, 72 h): 0%
Motor Activity Reduction (%) Significant M ([2]; 5 µM, 72 h): 0%
Motor Activity Reduction (%) Slight M ([2]; 5 µM, 72 h): 0%
Dead Worms (%) F ([2]; 5 µM, 96 h): 0%
Motor Activity Reduction (%) Significant F ([2]; 5 µM, 96 h): 0%
Motor Activity Reduction (%) Slight F ([2]; 5 µM, 96 h): 0%
Dead Worms (%) M ([2]; 5 µM, 96 h): 0%
Motor Activity Reduction (%) Significant M ([2]; 5 µM, 96 h): 0%
Motor Activity Reduction (%) Slight M ([2]; 5 µM, 96 h): 0%
Dead Worms (%) F ([2]; 10 µM, 24 h): 0%
Motor Activity Reduction (%) Significant F ([2]; 10 µM, 24 h): 0%
Motor Activity Reduction (%) Slight F ([2]; 10 µM, 24 h): 0%
Dead Worms (%) M ([2]; 10 µM, 24 h): 0%
Motor Activity Reduction (%) Significant M ([2]; 10 µM, 24 h): 0%
Motor Activity Reduction (%) Slight M ([2]; 10 µM, 24 h): 0%
Dead Worms (%) F ([2]; 10 µM, 48 h): 0%
Motor Activity Reduction (%) Significant F ([2]; 10 µM, 48 h): 0%
Motor Activity Reduction (%) Slight F ([2]; 10 µM, 48 h): 0%
Dead Worms (%) M ([2]; 10 µM, 48 h): 0%
Motor Activity Reduction (%) Significant M ([2]; 10 µM, 48 h): 0%
Motor Activity Reduction (%) Slight M ([2]; 10 µM, 48 h): 0%
Dead Worms (%) F ([2]; 10 µM, 72 h): 0%
Motor Activity Reduction (%) Significant F ([2]; 10 µM, 72 h): 0%
Motor Activity Reduction (%) Slight F ([2]; 10 µM, 72 h): 0%
Dead Worms (%) M ([2]; 10 µM, 72 h): 0%
Motor Activity Reduction (%) Significant M ([2]; 10 µM, 72 h): 0%
Motor Activity Reduction (%) Slight M ([2]; 10 µM, 72 h): 0%
Dead Worms (%) F ([2]; 10 µM, 96 h): 0%
Motor Activity Reduction (%) Significant F ([2]; 10 µM, 96 h): 0%
Motor Activity Reduction (%) Slight F ([2]; 10 µM, 96 h): 0%
Dead Worms (%) M ([2]; 10 µM, 96 h): 0%
Motor Activity Reduction (%) Significant M ([2]; 10 µM, 96 h): 0%
Motor Activity Reduction (%) Slight M ([2]; 10 µM, 96 h): 0%
Dead Worms (%) F ([2]; 25 µM, 24 h): 0%
Motor Activity Reduction (%) Significant F ([2]; 25 µM, 24 h): 0%
Motor Activity Reduction (%) Slight F ([2]; 25 µM, 24 h): 0%
Dead Worms (%) M ([2]; 25 µM, 24 h): 0%
Motor Activity Reduction (%) Significant M ([2]; 25 µM, 24 h): 0%
Motor Activity Reduction (%) Slight M ([2]; 25 µM, 24 h): 0%
Dead Worms (%) F ([2]; 25 µM, 48 h): 0%
Motor Activity Reduction (%) Significant F ([2]; 25 µM, 48 h): 0%
Motor Activity Reduction (%) Slight F ([2]; 25 µM, 48 h): 0%
Dead Worms (%) M ([2]; 25 µM, 48 h): 0%
Motor Activity Reduction (%) Significant M ([2]; 25 µM, 48 h): 0%
Motor Activity Reduction (%) Slight M ([2]; 25 µM, 48 h): 0%
Dead Worms (%) F ([2]; 25 µM, 72 h): 0%
Motor Activity Reduction (%) Significant F ([2]; 25 µM, 72 h): 0%
Motor Activity Reduction (%) Slight F ([2]; 25 µM, 72 h): 0%
Dead Worms (%) M ([2]; 25 µM, 72 h): 0%
Motor Activity Reduction (%) Significant M ([2]; 25 µM, 72 h): 0%
Motor Activity Reduction (%) Slight M ([2]; 25 µM, 72 h): 0%
Dead Worms (%) F ([2]; 25 µM, 96 h): 0%
Motor Activity Reduction (%) Significant F ([2]; 25 µM, 96 h): 0%
Motor Activity Reduction (%) Slight F ([2]; 25 µM, 96 h): 0%
Dead Worms (%) M ([2]; 25 µM, 96 h): 0%
Motor Activity Reduction (%) Significant M ([2]; 25 µM, 96 h): 0%
Motor Activity Reduction (%) Slight M ([2]; 25 µM, 96 h): 0%
Dead Worms (%) F ([2]; 50 µM, 24 h): 0%
Motor Activity Reduction (%) Significant F ([2]; 50 µM, 24 h): 0%
Motor Activity Reduction (%) Slight F ([2]; 50 µM, 24 h): 0%
Dead Worms (%) M ([2]; 50 µM, 24 h): 0%
Motor Activity Reduction (%) Significant M ([2]; 50 µM, 24 h): 0%
Motor Activity Reduction (%) Slight M ([2]; 50 µM, 24 h): 0%
Dead Worms (%) F ([2]; 50 µM, 48 h): 0%
Motor Activity Reduction (%) Significant F ([2]; 50 µM, 48 h): 0%
Motor Activity Reduction (%) Slight F ([2]; 50 µM, 48 h): 0%
Dead Worms (%) M ([2]; 50 µM, 48 h): 0%
Motor Activity Reduction (%) Significant M ([2]; 50 µM, 48 h): 0%
Motor Activity Reduction (%) Slight M ([2]; 50 µM, 48 h): 0%
Dead Worms (%) F ([2]; 50 µM, 72 h): 0%
Motor Activity Reduction (%) Significant F ([2]; 50 µM, 72 h): 0%
Motor Activity Reduction (%) Slight F ([2]; 50 µM, 72 h): 0%
Dead Worms (%) M ([2]; 50 µM, 72 h): 0%
Motor Activity Reduction (%) Significant M ([2]; 50 µM, 72 h): 0%
Motor Activity Reduction (%) Slight M ([2]; 50 µM, 72 h): 0%
Dead Worms (%) F ([2]; 50 µM, 96 h): 0%
Motor Activity Reduction (%) Significant F ([2]; 50 µM, 96 h): 0%
Motor Activity Reduction (%) Slight F ([2]; 50 µM, 96 h): 0%
Dead Worms (%) M ([2]; 50 µM, 96 h): 0%
Motor Activity Reduction (%) Significant M ([2]; 50 µM, 96 h): 0%
Motor Activity Reduction (%) Slight M ([2]; 50 µM, 96 h): 0%
activity against S. mansoni adult worms (in words) ([2]; analogues 50, 25, 10 and 5 μM, piplartine 5 and 10 μM, up to 96 h): loss of biological activity against S. mansoni
